This is an account of results in PubChem BioAssay (NCI).

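Protocol summary: plate cells (96-well), add compound at 5 concentrations, incubate 48 h, interpolate endpoints linearly. Abbreviation: GI50, concentration required for 50% inhibition of growth. TGI: total growth inhibition.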

Test systems include OVCAR-8 ovarian; DU-145 prostate; HCT-15 colon; MOLT-4 leukemia; U251 CNS; HOP-62 NSCLC; SN12C renal; MALME-3M melanoma; LOX IMVI melanoma; SK-MEL-5 melanoma.
What all share (assay): NCI tumour cell line growth inhibition, 48 h

As to `COc1cccc2c(Nc3ccc(C(=O)NCCN4CCNCC4)cc3)cc(-c3ccccc3)nc12`, the GI50 in the test with OVCAR-8 ovarian is 39.2 µM; with DU-145 prostate, 71 µM; in the test with HCT-15 colon it was 57.8 µM; in the test on MOLT-4 leukemia it was 30.6 µM; with U251 CNS, 34.8 µM; in the test with HOP-62 NSCLC it was above 100 µM. Moreover, the GI50 in the test with SN12C renal is 50.7 µM; in the test on MALME-3M melanoma it was 21.6 µM; with LOX IMVI melanoma it was 20.6 µM; in the test with SK-MEL-5 melanoma, 31 µM. Moreover, the TGI in the test with OVCAR-8 ovarian, with DU-145 prostate, in the test with HCT-15 colon, in the test on MOLT-4 leukemia, in the test with U251 CNS and in the test on HOP-62 NSCLC was above 100 µM in each case. For the same molecule, the TGI with SN12C renal was above 100 µM; in the test with MALME-3M melanoma, 47.6 µM; in the test on LOX IMVI melanoma it was 45.9 µM; with SK-MEL-5 melanoma, above 100 µM.

Take `c1csc(-c2[nH]nc3c2CCc2ccccc2-3)c1`: the GI50 with OVCAR-8 ovarian is 18.7 µM; in the test with DU-145 prostate, 23.4 µM; in the test with HCT-15 colon, 0.289 µM; in the test on MOLT-4 leukemia, 14.9 µM; in the test on U251 CNS it was 11.6 µM; in the test with HOP-62 NSCLC it was 12.8 µM. Also, the GI50 in the test with SN12C renal was 14.8 µM; in the test on MALME-3M melanoma, 19.8 µM; in the test on LOX IMVI melanoma, 15.7 µM; in the test with SK-MEL-5 melanoma it was 13 µM. For the same molecule, the TGI in the test with OVCAR-8 ovarian is 56.8 µM; with DU-145 prostate it was 71.3 µM; in the test with HCT-15 colon it was 18.6 µM; with MOLT-4 leukemia, 53.8 µM; in the test on U251 CNS, 26.3 µM; with HOP-62 NSCLC, 28.7 µM. Besides, the TGI was 30.2 µM in the test with SN12C renal, 50.4 µM in the test with MALME-3M melanoma, 29.4 µM with LOX IMVI melanoma and 26 µM in the test with SK-MEL-5 melanoma.

Consider `CCc1c[nH]c2ncnc(N3CC[C@](N)(CNC(=O)c4ccc(F)cc4F)C3)c12`, for which the GI50 in the test on OVCAR-8 ovarian is 28.2 µM; with DU-145 prostate, 18.3 µM; in the test with HCT-15 colon it was 15.5 µM; in the test with MOLT-4 leukemia, 0.439 µM; in the test on U251 CNS, 0.76 µM; in the test with HOP-62 NSCLC it was 12.8 µM. The GI50 was 24.2 µM in the test on SN12C renal, 3.4 µM in the test on MALME-3M melanoma, 26.2 µM in the test on LOX IMVI melanoma and 15.8 µM in the test with SK-MEL-5 melanoma. Moreover, the TGI in the test on OVCAR-8 ovarian is above 100 µM; with DU-145 prostate, above 100 µM; in the test on HCT-15 colon, above 100 µM; in the test with MOLT-4 leukemia, 46.2 µM; in the test on U251 CNS, above 100 µM; with HOP-62 NSCLC it was above 100 µM. Besides, the TGI in the test with SN12C renal was above 100 µM; in the test with MALME-3M melanoma it was 39.5 µM; with LOX IMVI melanoma, above 100 µM; in the test with SK-MEL-5 melanoma, above 52.5 µM.

Consider `Cc1cccc(Cc2cnc(NC(=O)CCCOc3ccc(Cl)cc3)s2)c1`, for which the GI50 was 27.3 µM in the test with OVCAR-8 ovarian; 3.91 µM in the test on DU-145 prostate; 3.56 µM in the test with HCT-15 colon; 5.72 µM in the test on MOLT-4 leukemia; 4.88 µM in the test with U251 CNS; 5.57 µM with HOP-62 NSCLC. In addition, the GI50 in the test on SN12C renal was 5.26 µM; in the test with MALME-3M melanoma, 5.38 µM; in the test with LOX IMVI melanoma, 6.8 µM; in the test with SK-MEL-5 melanoma, 3.69 µM. Also, the TGI in the test with OVCAR-8 ovarian, in the test with DU-145 prostate, with HCT-15 colon, in the test on MOLT-4 leukemia, with U251 CNS and with HOP-62 NSCLC was above 100 µM each time. Further, the TGI in the test with SN12C renal, in the test on MALME-3M melanoma, in the test on LOX IMVI melanoma and with SK-MEL-5 melanoma was above 100 µM in each case.

As to `Cn1c(=O)c(Oc2ccc(F)cc2F)cc2cnc(NC3CCC(O)CC3)nc21` (stereo not given), the GI50 with OVCAR-8 ovarian, in the test with DU-145 prostate, with HCT-15 colon, with MOLT-4 leukemia, in the test on U251 CNS and with HOP-62 NSCLC was above 25 µM each time. In addition, the GI50 in the test with SN12C renal, in the test with MALME-3M melanoma, with LOX IMVI melanoma and in the test on SK-MEL-5 melanoma was above 25 µM in each case. In addition, the TGI with OVCAR-8 ovarian, in the test with DU-145 prostate, in the test with HCT-15 colon, in the test on MOLT-4 leukemia, in the test with U251 CNS and in the test on HOP-62 NSCLC was above 25 µM throughout. In addition, the TGI with SN12C renal, in the test with MALME-3M melanoma, in the test on LOX IMVI melanoma and with SK-MEL-5 melanoma was above 25 µM each time.

`COC(=O)c1ccccc1NCc1cc(O)ccc1O`: the TGI in the test with OVCAR-8 ovarian was 34.5 µM; in the test with DU-145 prostate it was above 100 µM; in the test on HCT-15 colon it was 41.1 µM; in the test with MOLT-4 leukemia, 76.9 µM; with U251 CNS it was 40.1 µM; in the test on HOP-62 NSCLC it was above 71.4 µM. The TGI with SN12C renal worked out at 36.9 µM; with MALME-3M melanoma it was 36.3 µM; in the test on LOX IMVI melanoma, 32 µM; in the test on SK-MEL-5 melanoma, 38.9 µM.

Consider `COC(=O)/C(=C/c1ccc(OC)cc1)c1cc(OC)c(OC)c(OC)c1`, for which the TGI in the test with OVCAR-8 ovarian is above 100 µM; in the test on DU-145 prostate it was 8.56 µM; with HCT-15 colon, above 100 µM; in the test on MOLT-4 leukemia, above 97.5 µM; with U251 CNS, 39 µM; with HOP-62 NSCLC, above 51.2 µM. The TGI in the test on SN12C renal was above 100 µM; with MALME-3M melanoma, above 100 µM; with LOX IMVI melanoma it was above 100 µM; in the test with SK-MEL-5 melanoma, above 39.3 µM.

In the case of `ClCc1ccc(Cn2cnc3nc(Cl)nc(Cl)c32)cc1`, the GI50 with OVCAR-8 ovarian is 1.84 µM; with DU-145 prostate it was 0.444 µM; with HCT-15 colon it was 0.481 µM; in the test on MOLT-4 leukemia it was 1.68 µM; with U251 CNS, 0.772 µM; in the test on HOP-62 NSCLC, 1.98 µM. The GI50 with SN12C renal is 1.41 µM; with MALME-3M melanoma, 1.6 µM; with LOX IMVI melanoma, 0.487 µM; with SK-MEL-5 melanoma, 0.801 µM. Besides, the TGI in the test with OVCAR-8 ovarian came to 3.66 µM; in the test with DU-145 prostate, 1.12 µM; with HCT-15 colon it was 1.03 µM; with MOLT-4 leukemia, 5.26 µM; in the test on U251 CNS, 1.96 µM; with HOP-62 NSCLC, 3.74 µM. The TGI was 3.15 µM with SN12C renal, 3.24 µM in the test with MALME-3M melanoma, 1.23 µM in the test on LOX IMVI melanoma and 3.75 µM in the test with SK-MEL-5 melanoma.
